The text below walks through data of publication PMC9221546, “New Phenylglycinamide Derivatives with Hybrid Structure as Candidates for New Broad-Spectrum Anticonvulsants” (Cells, 2022).

The subject of series [1] is ivPTZ seizure threshold in mice. Nature of the series: Timed ivPTZ seizure threshold test. In kind it is in vivo. The settings on record: 50 mg/kg i.p., 0.5 h before test; for increase of threshold for generalized clonus with loss of righting reflex / increase of threshold for the first myoclonic twitch: vs control. As to the method: In studies assessing the acute effect of compounds 53 and 60 on the ivPTZ seizure threshold and neuromuscular strength, compounds 53 and 60 was suspended in a 1% solution of Tween 80 and administered i.p., at a dose of 10 mL/kg body weight. Each experimental group consisted of 9–12 animals (ivPTZ seizure threshold test) or 9−10 animals (grip strength test). The timed ivPTZ test was employed to evaluate the acute effect of compounds 53 and 60 on the seizure thresholds for (1) the first myoclonic twitch, (2) generalized clonic seizure with loss of righting reflex, and (3) forelimb tonus. The experimental procedure of the timed ivPTZ test was described in detail elsewhere. The acute effect of compounds 53 and 60 on neuromuscular strength was quantified using the grip-strength apparatus (BIOSEB, Chaville, France) according to the method that is described elsewhere. The results are depicted in Figure 2 (ivPTZ seizure threshold test, see Section 3 Results and Discussion) and Figure 3 (grip strength test, see Section 3 Results and Discussion).
The timed ivPTZ test was employed to further evaluate the effects of compounds 53 and 60 on seizure susceptibility in mice. The ivPTZ seizure test is an extremely sensitive method for assessing seizure thresholds in rodents. In this method, the threshold PTZ dose for several seizure endpoints was determined.
Figure 2 Acute effects of 53 and 60 on the threshold for the first myoclonic twitch (A), generalized clonus (B), and forelimb tonus (C) in the ivPTZ seizure threshold test in mice. Compounds 53 and 60 were administered i.p. 0.5 h before the seizure test. Control animals received vehicle only. Each experimental group consisted of 9–12 animals. Each bar represents the mean (mg/kg PTZ) + SEM. ** p < 0.01, *** p < 0.001, **** p < 0.0001 vs. the control group (Student’s t-test).

The target in series [2] is T1, Calcium Cav1.2 channels (dihydropyridine site) (Homo sapiens, UniProt Q13936).
T1 construct: host or cells: HEK-293
Briefly: Calcium Cav1.2 channel binding (dihydropyridine site, antagonist radioligand). The settings on record: 10 µM; human recombinant HEK-293 cell; read-out: % Inhibition of Control Specific Binding, Cav1.2 (dihydropyridine site).

A further series deals with T2, N-type Ca^2+ channel (Rattus norvegicus, UniProt Q02294).
T2 construct: Rat cerebral cortex; tissue Eurofins; host or cells: rat cerebral cortex
Nature of the series: N-type Ca2+ channel binding (antagonist radioligand). The settings on record: rat cerebral cortex, read-out: % Inhibition of Control Specific Binding, N-type Ca2+. How it is done:
Binding/functional studies were carried out commercially in Eurofins Laboratories (Poitiers, France) and Eurofins Panlabs Discovery Services Taiwan, Ltd. (New Taipei City, Taiwan) using testing procedures that were reported previously (for details see Table S2).
Table S2. Radioligand binding and functional assays. […]
N-type Ca2+ (antagonist radioligand) […]
TRPV1 (VR1) (h) (antagonist effect) […]
Assays were performed commercially in Eurofins Laboratories (Poitiers, France) or Eurofins Panlabs Discovery
Services Taiwan, Ltd. (New Taipei City, Taiwan). […]

The target in series [3] is T3, TRPV1 (VR1) (h) (Homo sapiens, UniProt Q8NER1).
T3 construct: host or cells: CHO
T3 sequence (Q8NER1 whole entry): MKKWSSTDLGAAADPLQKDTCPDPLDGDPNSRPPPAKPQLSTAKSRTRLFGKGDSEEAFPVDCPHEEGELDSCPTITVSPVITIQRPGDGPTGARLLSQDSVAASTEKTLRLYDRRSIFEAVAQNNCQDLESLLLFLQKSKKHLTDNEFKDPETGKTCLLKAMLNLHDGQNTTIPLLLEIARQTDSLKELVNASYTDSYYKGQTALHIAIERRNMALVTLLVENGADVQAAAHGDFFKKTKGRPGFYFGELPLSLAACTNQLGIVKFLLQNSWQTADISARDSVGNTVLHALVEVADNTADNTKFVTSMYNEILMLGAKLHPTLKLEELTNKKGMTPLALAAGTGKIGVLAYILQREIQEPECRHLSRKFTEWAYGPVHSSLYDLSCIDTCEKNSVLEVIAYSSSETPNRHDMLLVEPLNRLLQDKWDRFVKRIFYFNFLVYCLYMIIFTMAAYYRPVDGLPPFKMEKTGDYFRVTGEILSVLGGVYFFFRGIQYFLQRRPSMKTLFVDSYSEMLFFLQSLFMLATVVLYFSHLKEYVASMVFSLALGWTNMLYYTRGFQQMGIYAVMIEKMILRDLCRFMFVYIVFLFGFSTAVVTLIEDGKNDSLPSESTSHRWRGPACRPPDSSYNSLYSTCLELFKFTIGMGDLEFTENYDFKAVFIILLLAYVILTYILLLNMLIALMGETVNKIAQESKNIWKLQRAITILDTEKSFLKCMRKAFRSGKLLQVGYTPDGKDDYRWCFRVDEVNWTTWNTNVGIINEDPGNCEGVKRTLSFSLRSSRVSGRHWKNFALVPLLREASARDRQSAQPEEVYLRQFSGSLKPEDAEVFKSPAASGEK
Briefly: TRPV1 (VR1) (h) antagonist effect functional assay. Particulars: human recombinant CHO cells, read-out: % Inhibition of control agonist response, TRPV1 (antagonist effect). In kind it is cell-based. In short, it runs like this:
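Commercial Eurofins radioligand binding and functional panel: [3H]GABA agonist binding for GABAA, antagonist radioligand binding for GABA transporter, cell-based calcium flux antagonist assay for human Cav1.2. TRPV1 antagonism measured in human recombinant CHO cells at 100 µM as % inhibition of control agonist response.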

Series [4] relates to 6 Hz (44 mA) seizures in mice. Briefly: 6 Hz (44 mA) seizure model of drug-resistant epilepsy. It counts as in vivo. The settings on record: Mus musculus, ip, pretreatment time 0.5 h, (95% confidence limits). How it is done:
Adult male Albino Swiss mice that weighed between 22 and 26 g were used in the in vivo studies. They were housed under standardized housing conditions in colony cages and had free access to food as well as tap water. The animals were left to adapt under laboratory conditions for 7 days. All procedures involving animals and their care were performed in accordance with the current European Community and Polish legislation on animal experimentation.
In the initial screening studies, four mice per group were randomly assigned to each experimental group (each mouse was used only once). To evaluate the ED50 or TD50 values, 3–4 groups that consisted of eight animals were injected with various doses of tested compounds. The protective indexes (PIs) for the compounds that were investigated and reference ASDs were calculated by dividing the TD50 value, as determined in the chimney test (or rotarod test), by the respective ED50 value, as determined in the MES, scPTZ, or 6 Hz (32 mA or 44 mA) tests (PI = TD50/ED50). The PIs is a measure of the potential therapeutic window of the tested agent.
All substances were suspended in Tween 80 (1% aqueous solution) and administered i.p. as a single injection at a dose of 10 mL/kg. […]
Taking into consideration the potent protection of 53 and 60 in the 6 Hz (32 mA) seizure model, these compounds were also evaluated by applying a higher current intensity of 44 mA. […]

Series [5] addresses T3, TRPV1 (VR1) (h). Briefly: TRPV1 (VR1) (h) antagonist effect functional assay. In kind it is cell-based. The settings on record: human recombinant CHO cells.
The next series has as its target T4, recombinant human CYP2C9 (Homo sapiens, UniProt P11712).
T4 construct: purchased Promega (Madison, WI, USA)
Briefly: CYP2C9 P450-Glo luminescent assay. It counts as in vitro ADME. As to the method: The risk of potential DDIs was predicted with use of luminescent CYP3A4, 2D6, and 2C9 P450-Glo assays (Figure 6). […] However, such an effect was also observed in our previous studies for other pyrrolidine-2,5-dione derivatives. […] However, the potential risk of DDI of 60 was still assessed as very low, and was compared to the selective CYP2C9 inhibitor sulfaphenazole (Figure 6C).
The data were analyzed with one-way ANOVA, followed by Bonferroni’s Multiple Comparison Post Test (Graph Pad Prism 8.0.1 software, San Diego, CA, USA)): * p < 0.05, ** p < 0.01, *** p < 0.001 **** p < 0.0001. The compounds were examined in triplicate.

SMILES strings stand for the structures.

T4 sequence (P11712 whole entry): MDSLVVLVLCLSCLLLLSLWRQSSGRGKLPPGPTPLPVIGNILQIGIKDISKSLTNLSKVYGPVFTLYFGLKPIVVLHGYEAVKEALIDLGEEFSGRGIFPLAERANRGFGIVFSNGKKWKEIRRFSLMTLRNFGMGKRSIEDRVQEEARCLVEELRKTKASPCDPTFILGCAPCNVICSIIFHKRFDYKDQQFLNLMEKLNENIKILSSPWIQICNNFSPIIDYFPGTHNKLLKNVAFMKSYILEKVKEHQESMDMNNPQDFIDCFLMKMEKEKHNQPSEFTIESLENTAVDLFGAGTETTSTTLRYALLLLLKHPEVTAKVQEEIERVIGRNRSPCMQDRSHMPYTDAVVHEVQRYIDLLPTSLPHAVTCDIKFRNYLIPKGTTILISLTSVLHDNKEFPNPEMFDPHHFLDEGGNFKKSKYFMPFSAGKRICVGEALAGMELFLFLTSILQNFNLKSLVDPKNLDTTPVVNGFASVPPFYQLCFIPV

The term inhibition denotes the drop in the measured response relative to a control, in per cent. The term ED50 denotes the dose at which the effect has come halfway, by size or by number of responders. The term IC50 denotes the concentration that inhibits the measured activity by half. By Kb is commonly meant the affinity of an antagonist, worked out from how it opposes an agonist. With `CC(=O)NC(C(=O)N1CCN(c2cccc(C(F)(F)F)c2)CC1)c1ccccc1` (stereo not shown) [Compound 53, N-(2-oxo-1-phenyl-2-(4-(3-(trifluoromethyl)phenyl)piperazin-1-yl)ethyl)acetamide], in series [1], the “effect on threshold for forelimb tonus” value is “did not, however, produce any significant effect”; the “increase of threshold for generalized clonus with loss of righting reflex” value is ~ 40%; the “increase of threshold for the first myoclonic twitch” value was ~ 50%. The inhibition at 10 µM in series [2] is 4%. The inhibition at 100 µM on N-type Ca^2+ channel was determined as 1.5%. In addition, the inhibition at 100 µM at TRPV1 (VR1) (h) [3] amounted to 128%. The ED50 in series [4] stood at 68 mg/kg. Besides, on TRPV1 (VR1) (h) [5], the concentration for half-maximal inhibition (IC50) was 13 µM and the Kb was 1.7 µM. In addition, at recombinant human CYP2C9, the “influence on CYP2C9 activity” value is reported as “weak inhibition effect”.
In the case of `CC(=O)NC(C(=O)N1CCN(c2cccc(OC(F)(F)F)c2)CC1)c1ccccc1` (stereo not shown) [Compound 60, N-(2-oxo-1-phenyl-2-(4-(3-(trifluoromethoxy)phenyl)piperazin-1-yl)ethyl)acetamide], in series [1], the “effect on threshold for forelimb tonus” value is on record as “devoid of any significant effects”, the “increase of threshold for generalized clonus with loss of righting reflex” value is recorded as “devoid of any significant effects” and the “increase of threshold for the first myoclonic twitch” value was ~ 20%. In addition, the inhibition at 10 µM in series [2] was 7%. In addition, the inhibition at 100 µM at TRPV1 (VR1) (h) [3] stood at 110%. Also, the 50% effective dose (ED50) in series [4] amounted to 56.3 mg/kg. Moreover, at TRPV1 (VR1) (h) [5], the IC50 was 11 µM and the Kb was 1.5 µM. Besides, at recombinant human CYP2C9, the “influence on CYP2C9 activity” value is “a little stronger influence, observed also at 10 µM”.
